Literature values as cited in US20240100019A1, “COMPOSITIONS COMPRISING A THERMOREVERSIBLE HYDROGEL, AND HAVING AN EXTENDED IN-USE PERIOD” (UroGen Pharma Ltd., priority 2022, published 2024).
Where two headings read alike, the source gives them in different places.

Experiments:
[1] = room temperature; pH 4.5, 5.5, 6.0 and 7.0 solutions

CO[C@@]12[C@H](COC(N)=O)C3=C(C(=O)C(C)=C(N)C3=O)N1C[C@@H]1N[C@@H]12 [mitomycin C]
time at which MMC was unstable (less than 90% of the initial value) [1]: < 24 h | time for which MMC was stable (relative concentrations systematically over 90% of the initial concentrations) (0.2 mg/ml in 0.9% sodium chloride solution): 10 h | relative MMC concentration as compared to initial concentration (after 96 h, these solutions): below 80% | time for which MMC was stable (relative concentrations systematically over 90% of the initial concentrations) (in water for injections at a concentration of 1 mg/mL): 8 h | degradation products observed (reconstituted and diluted solutions): below 3%
